In the supplement of paper PMC6045584 one finds surviving fraction data, which are given here for seven test systems.

± gives the standard deviation of the averaged measurements.

Compound in assay [1]: CN(C)CC[C@H](CSc1ccccc1)Nc1ccc(S(=O)(=O)NC(=O)c2ccc(N3CCN(Cc4ccccc4-c4ccc(Cl)cc4)CC3)cc2)cc1[N+](=O)[O-] [ABT-737]
Put plainly: surviving fraction relative to DMSO-only wells; higher = less growth inhibition. The following applies: exposure time: 5 days. The method in brief: (§1)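 Viability values are CellTiter-Glo luminescence readings, given as surviving fraction against the median of DMSO-only wells. The readings were taken after 10 minutes at room temperature, following five days of continuous exposure to inhibitors at 0.5, 1, 5, 10, 50, 100, 500 and 1000 nM that began 24 hours after log-phase tumour cell lines were seeded at 250–500 cells per well in 384-well plates. Every line was screened three times and kept only if replicate Pearson r >0.7 and median Z' >0.3.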

Compound in assay [2]: O=c1[nH]cc(F)c(=O)[nH]1 [FLUOROURACIL]
Described as above. The settings on record: exposure time: 5 days. The method in brief:
as §1

On to SYO1 SYNOVIAL, for which the surviving fraction was 1.03 ± 0.048 in assay [1] (0.5 nM); 1.039 ± 0.01 in assay [1] (1 nM); 1.03 ± 0.07 in assay [1] (5 nM); 1.025 ± 0.0082 in assay [1] (10 nM); 1.04 ± 0.08 in assay [1] (50 nM); 0.984 ± 0.048 in assay [1] (100 nM). Besides, the surviving fraction in assay [1] (500 nM) worked out at 0.752 ± 0.03; in assay [1] (1000 nM) it was 0.504 ± 0.024; in assay [2] (0.5 nM) it was 1.02 ± 0.012; in assay [2] (1 nM), 0.989 ± 0.01; in assay [2] (5 nM), 0.962 ± 0.029; in assay [2] (10 nM), 0.974 ± 0.024. Besides, the surviving fraction was determined as 0.894 ± 0.016 in assay [2] (50 nM), 0.872 ± 0.034 in assay [2] (100 nM), 0.763 ± 0.034 in assay [2] (500 nM) and 0.616 ± 0.025 in assay [2] (1000 nM).
Consider T47D BREAST, for which the surviving fraction was determined as 1.13 ± 0.026 in assay [1] (0.5 nM); 1.08 ± 0.031 in assay [1] (1 nM); 1.08 ± 0.08 in assay [1] (5 nM); 1.08 ± 0.025 in assay [1] (10 nM); 1.03 ± 0.2 in assay [1] (50 nM); 1.089 ± 0.0036 in assay [1] (100 nM). Besides, the surviving fraction in assay [1] (500 nM) worked out at 1.11 ± 0.11; in assay [1] (1000 nM) it was 1.05 ± 0.035; in assay [2] (0.5 nM) it was 1.02 ± 0.03; in assay [2] (1 nM), 1.03 ± 0.03; in assay [2] (5 nM), 1 ± 0.0033; in assay [2] (10 nM), 1.01 ± 0.03. In addition, the surviving fraction turned out to be 1.02 ± 0.041 in assay [2] (50 nM), 0.95 ± 0.04 in assay [2] (100 nM), 0.855 ± 0.02 in assay [2] (500 nM) and 0.761 ± 0.028 in assay [2] (1000 nM).
As for U2OS BONE, the surviving fraction in assay [1] (0.5 nM) was found to be 1.04 ± 0.048; in assay [1] (1 nM), 1.04 ± 0.026; in assay [1] (5 nM) it was 1.06 ± 0.055; in assay [1] (10 nM) it was 1.04 ± 0.012; in assay [1] (50 nM) it was 1.08 ± 0.035; in assay [1] (100 nM), 1.11 ± 0.024. For the same test system, the surviving fraction in assay [1] (500 nM) turned out to be 1.06 ± 0.029; in assay [1] (1000 nM) it was 1.02 ± 0.038; in assay [2] (0.5 nM) it was 1.02 ± 0.021; in assay [2] (1 nM), 1.04 ± 0.025; in assay [2] (5 nM), 1.083 ± 0.0072; in assay [2] (10 nM), 1.05 ± 0.05. Moreover, the surviving fraction was 1.01 ± 0.011 in assay [2] (50 nM), 0.966 ± 0.083 in assay [2] (100 nM), 0.843 ± 0.051 in assay [2] (500 nM) and 0.674 ± 0.043 in assay [2] (1000 nM).
For VCAP PROSTATE, the surviving fraction in assay [1] (0.5 nM) came out at 1.03 ± 0.065; in assay [1] (1 nM), 0.971 ± 0.075; in assay [1] (5 nM) it was 1.14 ± 0.15; in assay [1] (10 nM), 1.04 ± 0.047; in assay [1] (50 nM), 1.17 ± 0.078; in assay [1] (100 nM) it was 1.13 ± 0.19. For the same test system, the surviving fraction in assay [1] (500 nM) stood at 1.01 ± 0.1; in assay [1] (1000 nM), 0.94 ± 0.047; in assay [2] (0.5 nM), 1.03 ± 0.11; in assay [2] (1 nM) it was 1.06 ± 0.026; in assay [2] (5 nM), 1.09 ± 0.044; in assay [2] (10 nM), 1.22 ± 0.097. For the same test system, the surviving fraction in assay [2] (50 nM) stood at 1.05 ± 0.077; in assay [2] (100 nM), 0.998 ± 0.22; in assay [2] (500 nM) it was 0.916 ± 0.17; in assay [2] (1000 nM) it was 0.939 ± 0.049.
On to VP229 BREAST, for which the surviving fraction was 1.1 ± 0.09 in assay [1] (0.5 nM); 1.12 ± 0.06 in assay [1] (1 nM); 1.18 ± 0.11 in assay [1] (5 nM); 1.12 ± 0.049 in assay [1] (10 nM); 1.22 ± 0.11 in assay [1] (50 nM); 1.17 ± 0.11 in assay [1] (100 nM). The surviving fraction in assay [1] (500 nM) came to 1.17 ± 0.017; in assay [1] (1000 nM), 1.13 ± 0.063; in assay [2] (0.5 nM), 1.08 ± 0.036; in assay [2] (1 nM), 0.988 ± 0.05; in assay [2] (5 nM), 1.1 ± 0.13; in assay [2] (10 nM) it was 0.92 ± 0.16. For the same test system, the surviving fraction in assay [2] (50 nM) worked out at 0.905 ± 0.068; in assay [2] (100 nM), 0.827 ± 0.062; in assay [2] (500 nM), 0.773 ± 0.095; in assay [2] (1000 nM), 0.654 ± 0.18.
For YAMATO SYNOVIAL, the surviving fraction in assay [1] (0.5 nM) was found to be 1.27 ± 0.17; in assay [1] (1 nM) it was 1.32 ± 0.11; in assay [1] (5 nM), 1.35 ± 0.16; in assay [1] (10 nM), 1.34 ± 0.043; in assay [1] (50 nM), 1.33 ± 0.19; in assay [1] (100 nM), 1.38 ± 0.029. Also, the surviving fraction was 1.27 ± 0.026 in assay [1] (500 nM); 1.27 ± 0.14 in assay [1] (1000 nM); 1.2 ± 0.08 in assay [2] (0.5 nM); 1.15 ± 0.056 in assay [2] (1 nM); 1.3 ± 0.021 in assay [2] (5 nM); 0.921 ± 0.061 in assay [2] (50 nM). The surviving fraction was found to be 0.829 ± 0.046 in assay [2] (100 nM), 0.791 ± 0.053 in assay [2] (500 nM) and 0.654 ± 0.028 in assay [2] (1000 nM).
In the case of ZR751 BREAST, the surviving fraction in assay [1] (0.5 nM) amounted to 1.08 ± 0.16; in assay [1] (1 nM), 1.1 ± 0.096; in assay [1] (5 nM), 1.14 ± 0.17; in assay [1] (10 nM) it was 1.02 ± 0.052; in assay [1] (50 nM), 1.07 ± 0.071; in assay [1] (100 nM) it was 1.03 ± 0.076. Further, the surviving fraction worked out at 1.07 ± 0.095 in assay [1] (500 nM); 1.03 ± 0.15 in assay [1] (1000 nM); 1.21 ± 0.13 in assay [2] (0.5 nM); 1.26 ± 0.11 in assay [2] (1 nM); 0.966 ± 0.051 in assay [2] (5 nM); 1.12 ± 0.18 in assay [2] (10 nM). Besides, the surviving fraction was determined as 1.04 ± 0.12 in assay [2] (50 nM), 1.1 ± 0.16 in assay [2] (100 nM), 0.974 ± 0.072 in assay [2] (500 nM) and 0.81 ± 0.083 in assay [2] (1000 nM).
